Data as given in patent US4929633A, “Actinonin derivatives having physiological activities” (Zaidan Hojin Biseibutsu Kagaku Kenkyu Kai, priority 1987, dated 1990).
pIC50: −log10 of the molar value. Entries after “also recorded” stand apart in the source; their conditions may differ.

How the values were obtained:
[1] = tested on: enkephalin-degrading enzymes; conditions: Kokai No. 4228/87; cited from earlier work
peptidases = conditions: Journal of Antibiotics 38, 1629-1630 (1985); cited from earlier work
[2] = Kokai No. 4228/87; cited from earlier work
[3] = Kokai No. 15840/86; U.S. Pat. No. 4,663,342; cited from earlier work
[4] = molecular target: T1, post-proline-cleaving enzyme (PPCE) (Sus scrofa, UniProt P23687); assay: PPCE-inhibitory activity (substrate Z-Gly-Pro-PNA); format: biochemical, swine; conditions: for pIC50: 37° C., 15 minutes, PPCE from swine kidney
T1 construct: PPCE used was an enzyme preparation made from swine kidney; from tissue; host or cells: swine kidney, ammonium sulfate fractionation and DEAE-Sephadex chromatography
T1 sequence (P23687 whole entry): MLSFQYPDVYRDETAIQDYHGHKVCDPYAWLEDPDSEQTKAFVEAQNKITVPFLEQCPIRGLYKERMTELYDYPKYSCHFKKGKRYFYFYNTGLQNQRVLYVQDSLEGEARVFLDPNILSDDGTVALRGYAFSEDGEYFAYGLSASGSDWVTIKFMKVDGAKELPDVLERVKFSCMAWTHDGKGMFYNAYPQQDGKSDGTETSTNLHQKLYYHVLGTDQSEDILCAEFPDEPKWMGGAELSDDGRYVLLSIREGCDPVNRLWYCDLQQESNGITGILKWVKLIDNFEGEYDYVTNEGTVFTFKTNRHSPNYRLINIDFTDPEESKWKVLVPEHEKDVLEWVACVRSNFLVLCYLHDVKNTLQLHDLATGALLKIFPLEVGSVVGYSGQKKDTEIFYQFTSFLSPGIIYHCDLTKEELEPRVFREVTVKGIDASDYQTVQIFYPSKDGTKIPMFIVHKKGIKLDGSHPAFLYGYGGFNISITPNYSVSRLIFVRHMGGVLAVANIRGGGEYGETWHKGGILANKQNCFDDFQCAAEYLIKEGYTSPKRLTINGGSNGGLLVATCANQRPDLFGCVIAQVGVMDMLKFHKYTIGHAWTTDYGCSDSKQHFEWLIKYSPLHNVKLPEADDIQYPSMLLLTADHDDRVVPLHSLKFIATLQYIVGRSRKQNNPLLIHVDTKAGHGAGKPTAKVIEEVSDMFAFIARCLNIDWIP
Description: The enzyme-inhibitory activities of these test compounds against PPCE were estimated by adding a substrate compound of the formula [drawing 18] namely, N-benzyloxycarbonyl-glycyl-prolyl-p-nitroanilide (Z-Gly-Pro-PNA) to a solution of an enzyme, then adding to the solution each test compound having the enzyme-inhibiting activity to be assayed, reacting the substrate, the enzyme and the test compounds with each other at 37° C. for 15 minutes and then measuring the consumed amount of the substrate in terms of the determined reduction in the absorbency of a ultraviolet ray of a given wave length which transmitted the reaction solution where the substrate compounds, the enzyme and the enzyme-inhibiting test compound have been reacted with each other. In these tests, PPCE used was an enzyme preparation made from swine kidney and prior to its use, was purified by fractionation with ammonium sulfate and by subsequent chromatography on DEAE-Sephadex agent.

[5] = molecular target: angiotension-conversion enzyme (ACE) (Homo sapiens, UniProt P12821); assay: ACE-inhibitory activity (method of Analytical Biochemistry 84, 361 (1978)); format: biochemical
angiotension-conversion enzyme (ACE), sequence (P12821 30-1306, species assumed): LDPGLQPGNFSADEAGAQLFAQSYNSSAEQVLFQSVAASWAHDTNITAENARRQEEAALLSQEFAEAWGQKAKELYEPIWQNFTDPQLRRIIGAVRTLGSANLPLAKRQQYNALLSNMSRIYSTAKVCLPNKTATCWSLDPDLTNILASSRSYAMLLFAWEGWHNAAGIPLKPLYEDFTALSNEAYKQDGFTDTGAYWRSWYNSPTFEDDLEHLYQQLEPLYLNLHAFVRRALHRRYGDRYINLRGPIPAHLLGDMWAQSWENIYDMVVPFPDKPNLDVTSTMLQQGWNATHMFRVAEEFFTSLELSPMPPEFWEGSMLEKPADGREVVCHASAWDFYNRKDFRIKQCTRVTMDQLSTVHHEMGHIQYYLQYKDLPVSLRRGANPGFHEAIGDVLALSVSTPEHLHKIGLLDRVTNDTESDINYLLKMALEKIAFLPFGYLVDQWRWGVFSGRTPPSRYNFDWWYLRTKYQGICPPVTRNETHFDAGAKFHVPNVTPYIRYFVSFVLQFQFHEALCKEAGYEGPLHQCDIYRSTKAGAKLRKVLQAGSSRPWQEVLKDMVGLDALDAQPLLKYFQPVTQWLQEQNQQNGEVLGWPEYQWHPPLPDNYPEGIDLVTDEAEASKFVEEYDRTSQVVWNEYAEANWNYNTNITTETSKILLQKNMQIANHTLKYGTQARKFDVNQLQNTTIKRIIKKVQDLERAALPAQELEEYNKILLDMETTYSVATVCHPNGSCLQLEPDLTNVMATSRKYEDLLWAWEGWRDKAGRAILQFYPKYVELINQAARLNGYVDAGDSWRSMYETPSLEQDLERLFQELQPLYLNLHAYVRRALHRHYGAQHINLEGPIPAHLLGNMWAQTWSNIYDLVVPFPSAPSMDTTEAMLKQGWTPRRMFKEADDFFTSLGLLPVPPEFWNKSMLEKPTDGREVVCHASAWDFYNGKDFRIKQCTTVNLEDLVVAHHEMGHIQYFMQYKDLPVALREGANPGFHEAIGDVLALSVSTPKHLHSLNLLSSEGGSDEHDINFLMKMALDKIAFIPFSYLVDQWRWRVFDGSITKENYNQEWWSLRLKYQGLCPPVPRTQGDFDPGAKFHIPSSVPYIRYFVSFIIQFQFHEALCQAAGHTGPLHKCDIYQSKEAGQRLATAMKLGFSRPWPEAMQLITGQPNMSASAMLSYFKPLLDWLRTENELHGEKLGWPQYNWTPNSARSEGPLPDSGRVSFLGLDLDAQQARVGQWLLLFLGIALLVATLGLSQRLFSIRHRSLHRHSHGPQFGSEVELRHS
Excerpt: The enzyme-inhibitory activity of the test compounds against ACE were estimated in accordance with a method as described in the literature "Analytical Biochemistry", 84, 361 (1978).

[6] = U.S. Pat. No. 3,240,787; cited from earlier work
[7] = tested on: experimental amnesia in mice; assay: step-down type passive avoidance response test, cycloheximide-induced amnesia in mice; format: in vivo, mouse (male ddy-mice); conditions: for Residence time: 24 h, max 300 s, control mice 220 ± 37
Description: These experiments were performed using male ddy-mice having an average body weight of 25 g as the test animal. A platform in cubic form having a length of 4 cm for each side of the cube was arranged in a cage on the floor of the cage. Each mouse was placed on the platform. An electric current-feeding device had been provided on the floor area of the cage which positioned outside the platform. It was so arranged that whenever the mouse descended onto the floor from the platform, a 60 V electric current was caused to pass through the floor for 0.5 second to shock the mouse so as to have the mouse learn the shocking passage of electric current. Immediately after the mouse's learning, the mouse was subcutaneously administered with 30 mg/kg of cycloheximide so as to induce experimental amnesia. Each test compound had been intraperitoneally administered to the mouse at a time of 15 minutes before the mouse's learing was commenced. Upon an elapsed time of 24 hours after the completion of the mouse's learning for the electric current passage, the mouse treated as above was again placed on the same platform in the same cage under the same conditions, and the residence time of the mouse staying on the platform was measured under a pre-requisit that a maximum residence time as determined was set to be up to 300 seconds.
The results of the experiments for the cycloheximide-induced amnestic mice as treated by the previous intraperitoneal administration of the test compound of this invention are summarized in Table 2 below.

| SMILES | PPCE-inhibitory activity (in words) [4] | pIC50 [4] | ACE-inhibitory activity (in words) [5] | pIC50 [5] | further results |
| --- | --- | --- | --- | --- | --- |
| CCCCC[C@H](CC(=O)NO)C(=O)N[C@H](C(=O)N1CCC[C@H]1CO)C(C)C [Actinonin] | medium enzyme-inhibitory activity; also recorded: medium enzyme-inhibitory activities | 4.11 | medium enzyme-inhibitory activity; also recorded: medium enzyme-inhibitory activities | 4.42 | inhibition of the enkephalin-degrading enzymes (in words) [1]: can inhibit the enkephalin-degrading enzymes; inhibition of peptidases (in words) (peptidases): inhibit a wide variety of peptidases; anodyne activity (in words) [2]: anodyne activity; immunopotentiating activity (in words) [3]: immunopotentiating activity; antibacterial activity (in words) [6]: antibacterial activity |
| CCCCC[C@H](CC(=O)O)C(=O)N[C@H](C(=O)N1CCC[C@H]1CO)C(C)C [Compound of the Formula (III), (2S)-2-pentylsuccinyl-L-valyl-L-prolinol] | – | < 3.87 | – | < 3.87 | – |
| CCCCC[C@H](CC(=O)O)C(=O)N[C@H](C(=O)N1CCC[C@H]1C=O)C(C)C [Example 1, (2S)-2-pentylsuccinyl-L-valyl-L-prolinal] | – | 7.08 | – | < 3.87 | – |
| CCCCC[C@H](CC(=O)OCC)C(=O)N[C@H](C(=O)N1CCC[C@H]1C=O)C(C)C [Example 2, (2S)-3-Ethoxycarbonyl-2-pentylpropionyl-L-valyl-L-prolinal] | strong PPCE-inhibitory activity | 7.26 | no enzyme-inhibitory activity against ACE | < 3.90 | Residence time ([7]; 3 mg/kg i.p. 15 min before learning, cycloheximide 30 mg/kg s.c., n=9, cycloheximide alone 114 ± 26): 188 ± 35 s; Residence time ([7]; 10 mg/kg i.p. 15 min before learning, cycloheximide 30 mg/kg s.c., n=9, cycloheximide alone 114 ± 26): 180 ± 26 s; therapeutic effects to treat the experimental amnesia (in words) ([7]; cycloheximide-induced amnesia, mice): marked therapeutic effects |
| C[C@@H]1C[C@@H]([C@H](O)CC2CC(=O)NC(=O)C2)C(=O)[C@@H](C)C1 [cycloheximide] | – | – | – | – | Residence time ([7]; cycloheximide alone (comparative), 30 mg/kg s.c. after learning, n=10): 114 ± 26 s |
